Results on 1 substance are retold here after US20130109636A1, “TRI-AMINO RELEASING FULVATE” (priority 2011, published 2013).

Holding throughout (format): in vivo
One data set can be described thus: hypertension. To be noted: encapsulated.
The nature of a further data set: wound healing. The source says: (§1) This acceleration of microcirculation has many positive benefits.
The nature of the next data set: pain relief. To be noted: wounds such as burns and skin lesions.
A further data set is described as follows: prostate. To be noted: swollen prostate.
Data set [1] can be described thus: vasodilatation / acceleration of microcirculation.
Text: as §1

A further data set in a line: anti-inflammatory. Particulars: in all forms.

Take “lithio-arginino-glycino-parabenzene-fulvate [Li-TAFA]”: in the data set “hypertension”, the reduction of hypertension entry was “demonstrated the ability to reduce hypertension” and the toxic side effects result is “without toxic side effects”. In “wound healing” (lesions healed: 3rd degree radiation burns, squamous and basal cell carcinoma, psoriasis, venous stasis ulcers, decubitus ulcers, deep surgical wounding, herpes), the “healing of wounds, burns and chronic lesions” value was “exhibited the ability to aid and accelerate the healing of wounds, burns (of all degrees) and several types of chronic lesions”. The scar formation entry in the data set “wound healing” (radiation burns of the 3rd degree) is “complete suppression of scar formation”. Besides, the pain relief entry in the data set “pain relief” is given as “demonstrated substantial pain relief, without diminishing topical sensation”. For the same substance, the prostate size result in “prostate” is “demonstrated the ability to shrink a swollen prostate to normal size”. Also, the “vasodilatation qualities / acceleration of microcirculation” value in data set [1] (used topically or internally) is reported as “exhibited vasodilatation qualities”. Moreover, in data set [1] (used topically or internally to accelerate microcirculation), the toxic side effects entry is on record as “without toxic side effects”. Further, in the data set “anti-inflammatory”, the “reduction of inflammation and of resulting discomfort” value was “shown the ability to reduce inflammation and control the discomfort resulting from inflammation”.
